# Test results reported in ChEMBL document CHEMBL1201862, “PubChem BioAssay data set” (2004).
#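 Cultured in 96-well plates, cells were exposed to test compound for 48 hours across five concentrations. Here, GI50 denotes the concentration required for 50% inhibition of growth.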 The source made the active and inactive calls. Rule as the data show it: active = GI50 up to about 1.1 µM and inactive = higher.
# Columns and labels:
# Test in all cases: NCI anticancer screen, dose series, 48 h
# A549 = system: A549
# SW-620 = system: SW-620
# COLO 205 = system: COLO 205
# HCT-15 = system: HCT-15
# A498 = system: A498
# HOP-62 = system: HOP-62
# SK-MEL-28 = system: SK-MEL-28
# NCI-H226 = system: NCI-H226
# CCRF-CEM = system: CCRF-CEM
# HCT-116 = system: HCT-116
# UACC-62 = system: UACC-62
# OVCAR-3 = system: OVCAR-3
# SK-MEL-2 = system: SK-MEL-2
# K562 = system: K562
# RPMI-8226 = system: RPMI-8226
# NCI-H460 = system: NCI-H460
# ACHN = system: ACHN
# T47D = system: T47D
# SR = system: SR
# MCF7 = system: MCF7
SMILES,GI50 (A549),GI50 (SW-620),GI50 (COLO 205),GI50 (HCT-15),GI50 (A498),GI50 (HOP-62),GI50 (SK-MEL-28),GI50 (NCI-H226),GI50 (CCRF-CEM),GI50 (HCT-116),GI50 (UACC-62),GI50 (OVCAR-3),GI50 (SK-MEL-2),GI50 (K562),GI50 (RPMI-8226),GI50 (NCI-H460),GI50 (ACHN),GI50 (T47D),GI50 (SR),GI50 (MCF7)
O=C(O)CCc1nc2c(n1Cc1ccccc1)C(=O)c1ccccc1C2=O,50.4 µM (inactive),31.8 µM (inactive),33.9 µM (inactive),48.8 µM,> 100 µM (inactive),> 100 µM (inactive),> 100 µM (inactive),> 100 µM (inactive),76.7 µM (inactive),36.3 µM (inactive),38 µM (inactive),27.9 µM (inactive),26 µM (inactive),57.3 µM (inactive),39 µM (inactive),37.9 µM (inactive),> 100 µM (inactive),52 µM (inactive),51.4 µM (inactive),43.8 µM (inactive)
COC(=O)/C=C\C(C#N)(C#N)/N=C/c1cc(Br)cs1,18 µM (inactive),1.15 µM (inactive),1.98 µM (inactive),2.71 µM,18.5 µM (inactive),18.6 µM (inactive),5.32 µM (inactive),19.8 µM (inactive),0.0914 µM (active),1.76 µM (inactive),17.7 µM (inactive),7 µM (inactive),10.6 µM (inactive),0.562 µM (active),3.24 µM (inactive),19.6 µM (inactive),2.22 µM (inactive),2.12 µM (inactive),2.32 µM (inactive),1.51 µM (inactive)
COc1ccc2c(c1)C(=O)C(=O)c1cc(O)c(OC)c(OC)c1-2,2.73 µM (inactive),1.2 µM (inactive),1.31 µM (inactive),0.91 µM,4.48 µM (inactive),0.845 µM (active),0.845 µM (active),5.64 µM (inactive),0.791 µM (active),0.813 µM (active),0.849 µM (active),0.946 µM (active),0.861 µM (active),0.838 µM (active),1.09 µM (active),3.02 µM (inactive),0.893 µM (active),1.13 µM (inactive),0.818 µM (active),0.902 µM (active)
Clc1ccc2ns[s+]c2c1,5.24 µM (inactive),6.62 µM (inactive),1.79 µM (inactive),0.33 µM,> 100 µM (inactive),4.32 µM (inactive),17.7 µM (inactive),> 89.7 µM (inactive),1.27 µM (inactive),1.03 µM (active),0.275 µM (active),31.6 µM (inactive),9.35 µM (inactive),0.0611 µM (active),1.81 µM (inactive),5.83 µM (inactive),0.449 µM (active),11.7 µM (inactive),1.34 µM (inactive),3.33 µM (inactive)
C[C@@]12C(=O)OC(=O)[C@]1(C)[C@H]1CC[C@@H]2O1 [CANTHARIDIN],0.918 µM (active),3.84 µM (inactive),0.427 µM (active),4.06 µM,1.12 µM (inactive),2.44 µM (inactive),3.48 µM (inactive),1.06 µM (active),1.19 µM (inactive),1.98 µM (inactive),2.12 µM (inactive),0.759 µM (active),1.45 µM (inactive),2.3 µM (inactive),2.08 µM (inactive),2.72 µM (inactive),1.18 µM (inactive),1.68 µM (inactive),2.61 µM (inactive),7.76 µM (inactive)
O=C(O)Cc1cccc2c(=O)cc(-c3ccccc3)oc12 [MITOFLAXONE],245 µM (inactive),> 250 µM (inactive),> 250 µM (inactive),220 µM,226 µM (inactive),243 µM (inactive),> 250 µM (inactive),237 µM (inactive),213 µM (inactive),206 µM (inactive),> 250 µM (inactive),235 µM (inactive),153 µM (inactive),239 µM (inactive),244 µM (inactive),> 250 µM (inactive),> 250 µM (inactive),> 250 µM (inactive),321 µM (inactive),236 µM (inactive)
